Test results reported in ChEMBL document CHEMBL5331140, “Discovery of IACS-52825, a Potent and Selective DLK Inhibitor for Treatment of Chemotherapy-Induced Peripheral Neuropathy” (J Med Chem, 2023).
Active and inactive are the calls of the source.

Columns and labels:
[1] = Metabolic stability in human liver microsomes assessed as intrinsic clearance at 1 uM in presence of NADPH regenerating system measured for 45 mins by LC-MS/MS analysis; format: ADME, Microsome; conditions: read-out: CLH
[2] = Binding affinity to full length human DLK (1 to 859 residues)/NFkappaB DNA binding domain (unknown origin) fusion protein transfected in HEK293 cells assessed as dissociation constant incubated for 1 hr by Kinomescan assay; format: cell-based
[3] = Metabolic stability in rat liver microsomes assessed as intrinsic clearance at 1 uM in presence of NADPH regenerating system measured for 45 mins by LC-MS/MS analysis; format: ADME, Microsome; conditions: read-out: CLH
[4] = Half life in C57BL/6 mouse at 0.3 mg/kg, iv measured for 24 hrs by LC-MS/MS analysis; format: ADME, organism-based; conditions: in vivo
[5] = Ratio of unbound drug concentration in C57BL/6 mouse brain to plasma at 0.3 mg/kg, iv measured for 24 hrs by LC-MS/MS analysis; format: ADME, organism-based; conditions: brain and plasma, read-out: K(p,uu,brain)
[6] = Metabolic stability in mouse liver microsomes assessed as intrinsic clearance at 1 uM in presence of NADPH regenerating system measured for 45 mins by LC-MS/MS analysis; format: ADME, Microsome; conditions: read-out: CLH
[7] = Oral bioavailability in Beagle dog at 1 mg/kg administered via oral gavage and measured for 24 hrs by LC-MS/MS analysis; format: ADME, organism-based, Canis lupus familiaris; conditions: in vivo
[8] = Half life in cynomolgus monkey at 1 mg/kg, po or 0.3 mg/kg, iv measured for 24 hrs by LC-MS/MS analysis; format: ADME, organism-based, Macaca fascicularis; conditions: in vivo
[9] = Half life in Sprague-Dawley rat at 3 mg/kg, po or 0.3 mg/kg, iv measured for 24 hrs by LC-MS/MS analysis; format: ADME, organism-based; conditions: in vivo
[10] = Oral bioavailability in cynomolgus monkey at 1 mg/kg administered via nasal gavage measured for 24 hrs by LC-MS/MS analysis; format: ADME, organism-based, Macaca fascicularis; conditions: in vivo
[11] = Half life in Beagle dog at 1 mg/kg, po or 0.3 mg/kg, iv measured for 24 hrs by LC-MS/MS analysis; format: ADME, organism-based, Canis lupus familiaris; conditions: in vivo
[12] = Oral bioavailability in Sprague-Dawley rat at 3 mg/kg administered via oral gavage and measured for 24 hrs by LC-MS/MS analysis; format: ADME, organism-based; conditions: in vivo
[13] = Oral bioavailability in C57BL/6 mouse at 10 mg/kg administered via oral gavage and measured for 24 hrs by LC-MS/MS analysis; format: ADME, organism-based; conditions: in vivo; for bioavailability: C57BL/6, mouse
[14] = molecular target: Voltage-gated inwardly rectifying potassium channel KCNH2 (Homo sapiens, UniProt Q12809)
Sequence of Voltage-gated inwardly rectifying potassium channel KCNH2 (Q12809 whole entry): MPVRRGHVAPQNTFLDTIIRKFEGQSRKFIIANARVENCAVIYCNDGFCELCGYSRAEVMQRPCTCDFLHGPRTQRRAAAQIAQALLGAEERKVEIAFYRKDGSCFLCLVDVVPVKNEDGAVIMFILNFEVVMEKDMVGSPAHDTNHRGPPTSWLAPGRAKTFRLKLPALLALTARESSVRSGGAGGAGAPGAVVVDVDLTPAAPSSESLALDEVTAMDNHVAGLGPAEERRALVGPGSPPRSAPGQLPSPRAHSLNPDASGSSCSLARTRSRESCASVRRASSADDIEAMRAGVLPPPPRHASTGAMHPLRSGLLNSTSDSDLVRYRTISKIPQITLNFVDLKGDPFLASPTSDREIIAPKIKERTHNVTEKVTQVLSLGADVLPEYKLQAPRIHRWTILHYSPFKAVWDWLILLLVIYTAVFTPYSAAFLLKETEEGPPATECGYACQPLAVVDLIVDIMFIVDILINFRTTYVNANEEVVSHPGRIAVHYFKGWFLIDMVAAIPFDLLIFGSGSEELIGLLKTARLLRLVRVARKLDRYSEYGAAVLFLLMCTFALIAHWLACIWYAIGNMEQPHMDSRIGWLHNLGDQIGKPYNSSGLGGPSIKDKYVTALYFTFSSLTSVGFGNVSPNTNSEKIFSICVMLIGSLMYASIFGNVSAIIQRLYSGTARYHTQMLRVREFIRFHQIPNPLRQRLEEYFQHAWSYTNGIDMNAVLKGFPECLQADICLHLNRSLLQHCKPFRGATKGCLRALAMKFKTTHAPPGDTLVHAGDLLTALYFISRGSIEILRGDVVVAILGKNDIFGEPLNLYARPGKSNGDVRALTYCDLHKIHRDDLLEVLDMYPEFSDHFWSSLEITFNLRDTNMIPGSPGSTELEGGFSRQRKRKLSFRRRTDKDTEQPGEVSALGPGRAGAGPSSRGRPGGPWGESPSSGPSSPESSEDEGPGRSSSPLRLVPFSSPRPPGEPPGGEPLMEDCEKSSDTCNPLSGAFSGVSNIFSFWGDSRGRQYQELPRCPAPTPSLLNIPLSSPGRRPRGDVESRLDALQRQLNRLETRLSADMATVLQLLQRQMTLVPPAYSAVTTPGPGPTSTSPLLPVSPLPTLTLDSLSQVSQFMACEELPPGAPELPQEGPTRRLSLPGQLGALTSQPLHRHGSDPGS
Description: Inhibition of hERG expressed in CHO cells at -80 mV holding potential by QPatch automated electrophysiology assay

Mus musculus [15] = assay: (§1) Antiallodynic activity in cisplatin-induced mechanical allodynia C57BL/6 mouse model assessed as increase in paw withdrawal threshold at 30 mg/kg, po stimulated with cisplatin on day 1 to 5 and 10 to 15 followed by daily administration of compound from day 6 to 16 and measured for 30 days by von frey test; format: functional, organism-based; conditions: time 25.0 day
[16] = molecular target: T1, Dual specificity mitogen-activated protein kinase kinase 5 (Homo sapiens) (UniProt Q13163); assay: Inhibition of MEK5 (unknown origin) at 1 uM relative to control
T1 sequence (whole entry): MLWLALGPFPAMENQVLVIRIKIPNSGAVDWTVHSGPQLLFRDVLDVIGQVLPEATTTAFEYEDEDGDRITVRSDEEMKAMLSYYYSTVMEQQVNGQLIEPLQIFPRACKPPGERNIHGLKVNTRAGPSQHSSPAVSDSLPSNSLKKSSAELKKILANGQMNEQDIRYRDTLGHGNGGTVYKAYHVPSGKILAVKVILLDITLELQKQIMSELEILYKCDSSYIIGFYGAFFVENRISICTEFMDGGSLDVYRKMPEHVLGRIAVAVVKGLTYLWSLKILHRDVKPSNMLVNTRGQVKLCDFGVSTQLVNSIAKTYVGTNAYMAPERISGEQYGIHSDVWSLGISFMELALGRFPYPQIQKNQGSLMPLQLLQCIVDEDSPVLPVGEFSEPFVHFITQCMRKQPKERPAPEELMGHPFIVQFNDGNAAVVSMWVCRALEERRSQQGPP

[17] = Toxicity in rat by GLP toxicity study; conditions: in vivo
Mus musculus [18] = assay: as §1, with “day” for “day 6 to”, “for 35” for “for 30”; format: functional, organism-based; conditions: time 20.0 day
[19] = Volume of distribution at steady state in C57BL/6 mouse at 0.3 mg/kg, iv administered via tail vein and measured for 24 hrs by LC-MS/MS analysis; format: ADME, organism-based; conditions: in vivo, read-out: Vdss
[20] = Cmax in C57BL/6 mouse at 10 mg/kg administered via oral gavage and measured for 24 hrs by LC-MS/MS analysis; format: ADME, organism-based; parameters: dose 10 mg/kg, time 24 hrs, route po; conditions: in vivo
[21] = AUClast in C57BL/6 mouse at 10 mg/kg administered via oral gavage and measured for 24 hrs by LC-MS/MS analysis; format: ADME, organism-based; parameters: time 24 hrs, dose 10 mg/kg, route po; conditions: in vivo
[22] = molecular target: T2, Mitogen-activated protein kinase kinase kinase 12 (Homo sapiens, UniProt Q12852); assay: Inhibition of doxycycline-inducible human DLK transfected in HEK293 cells assessed as reduction in c-Jun phosphorylation at Ser63 residue incubated for 5 hrs; format: cell-based
T2 sequence (Q12852 whole entry): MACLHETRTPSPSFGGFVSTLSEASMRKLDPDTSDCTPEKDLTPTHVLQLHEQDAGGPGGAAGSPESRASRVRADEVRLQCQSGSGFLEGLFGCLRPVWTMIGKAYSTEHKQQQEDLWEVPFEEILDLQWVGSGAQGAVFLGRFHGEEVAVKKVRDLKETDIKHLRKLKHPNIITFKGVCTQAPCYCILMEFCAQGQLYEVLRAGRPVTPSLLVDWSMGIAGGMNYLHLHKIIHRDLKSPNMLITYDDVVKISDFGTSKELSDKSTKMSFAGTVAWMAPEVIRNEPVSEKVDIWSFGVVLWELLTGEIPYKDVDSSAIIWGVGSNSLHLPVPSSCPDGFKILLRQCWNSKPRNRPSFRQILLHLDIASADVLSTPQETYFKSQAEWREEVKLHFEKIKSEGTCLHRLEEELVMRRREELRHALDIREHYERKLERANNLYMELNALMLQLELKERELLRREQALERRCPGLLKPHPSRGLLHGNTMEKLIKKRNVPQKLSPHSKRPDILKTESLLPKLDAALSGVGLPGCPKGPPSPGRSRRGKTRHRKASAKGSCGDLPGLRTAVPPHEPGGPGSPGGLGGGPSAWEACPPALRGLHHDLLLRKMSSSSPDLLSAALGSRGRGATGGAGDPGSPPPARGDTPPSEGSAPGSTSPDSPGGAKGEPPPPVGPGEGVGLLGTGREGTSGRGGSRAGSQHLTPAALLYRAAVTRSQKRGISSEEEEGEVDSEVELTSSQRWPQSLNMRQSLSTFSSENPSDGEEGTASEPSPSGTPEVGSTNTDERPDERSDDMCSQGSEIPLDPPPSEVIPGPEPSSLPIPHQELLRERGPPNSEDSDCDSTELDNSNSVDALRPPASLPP

[23] = Half life in C57BL/6 mouse at 0.3 mg/kg, iv administered via tail vein and measured for 24 hrs by LC-MS/MS analysis; format: ADME, organism-based; conditions: in vivo

Row | SMILES | CLint scaled at 1 µM [1] | Kd [2] | CLint scaled at 1 µM [3] | Kp uu at 24 h [5] | CLint scaled at 1 µM [6] | further results
1 | CC(C)(C)Cc1nc(-c2cnc(N)c(C(F)(F)F)c2)cn1C12CC(N3CCOCC3)(C1)C2 | 14 mL/min/kg | 66 nM | 43 mL/min/kg | – | – | –
2 | Nc1ncc(-c2cn(C34CC(N5CCOCC5)(C3)C4)c(C3CC3)n2)cc1C(F)(F)F | 5 mL/min/kg | 13 nM | 10 mL/min/kg | 0.34 | 16 mL/min/kg | half-life [4]: 3.8 h
3 | CC(C)Cc1nc(-c2cnc(N)c(C(F)(F)F)c2)cn1C12CC(N3CCOCC3)(C1)C2 | 9 mL/min/kg | 6.1 nM | 11 mL/min/kg | – | – | –
4 | CC(C)c1nc(-c2cnc(N)c(C(F)(F)F)c2)cn1C1CC1 | – | 130 nM | – | – | – | –
5 | CC(C)[C@H](O)c1nc(-c2cnc(N)c(OC(F)(F)F)c2)cn1C12CC(N3CCOCC3)(C1)C2 | 22 mL/min/kg | 0.4 nM | 1 mL/min/kg | 0.2 | 3 mL/min/kg | –
6 | CC(C)c1nc(-c2cnc(N)c(C(F)(F)F)c2)cn1C1CCCC1 | 362 mL/min/kg | 225 nM | 238 mL/min/kg | – | 2670 mL/min/kg | –
7 | Nc1ncc(-c2cn(C34CC(N5CCOCC5)(C3)C4)c(C3CC3)n2)cc1OC(F)(F)F | 2 mL/min/kg | – | 12 mL/min/kg | 0.73 | 12 mL/min/kg | bioavailability [7]: 77%; half-life [8]: 4.6 h; half-life [9]: 3.4 h; bioavailability [10]: 66%; half-life [11]: 10.5 h; bioavailability [12]: > 100%; bioavailability [13]: > 100%; half-life [4]: 3.5 h
8 | CC(C)c1nc(-c2cnc(N)c(C(F)(F)F)c2)cn1C1CCC1 | 233 mL/min/kg | 66 nM | 133 mL/min/kg | – | 789 mL/min/kg | –
9 | Nc1ncc(-c2cc([C@H]3[C@@H]4CN(C5COC5)C[C@@H]43)n(CC3CC3)n2)cc1C(F)(F)F | – | 13 nM | – | – | – | –
10 | Nc1ncc(-c2cn([C@H]3[C@@H]4CN(C5COC5)C[C@@H]43)c(CC3CC3)n2)cc1C(F)(F)F | – | 63 nM | – | – | – | –
11 | CC(C)c1nc(-c2cnc(N)c(OC(F)(F)F)c2)cn1C12CC(N3CCOCC3)(C1)C2 | 9 mL/min/kg | 14 nM | 6 mL/min/kg | 0.6 | 9 mL/min/kg | bioavailability [7]: 80%; half-life [8]: 6.3 h; half-life [9]: 7 h; bioavailability [10]: 64%; half-life [11]: 22.9 h; IC50 [14]: > 30000 nM; bioavailability [12]: > 100%; bioavailability [13]: > 100%; half-life [4]: 3.5 h; Activity (Mus musculus [15]): Active; inhibition [16]: 16%; Activity [17]: Toxic; Activity (Mus musculus [18]): Active
12 | Nc1ncc(-c2cn(C34CC(N5CCOCC5)(C3)C4)c(CC3CC3)n2)cc1C(F)(F)F | 6 mL/min/kg | – | 5 mL/min/kg | – | – | –
13 | CC(C)n1nc(-c2cnc(N)c(C(F)(F)F)c2)cc1C1CC1 | – | 110 nM | – | – | – | –
14 | CC(C)c1nc(-c2cnc(N)c(C(F)(F)F)c2)cn1C12CC(N3CCOCC3)(C1)C2 | 7 mL/min/kg | 12 nM | – | 0.14 | 6 mL/min/kg | half-life [4]: 3.3 h
15 | CC(C)c1nc(-c2cnc(N)c(C(F)(F)F)c2)cn1C12CC(C1)C2 | 168 mL/min/kg | 49 nM | 69 mL/min/kg | – | 199 mL/min/kg | –
16 | CC(C)C(O)c1nc(-c2cnc(N)c(OC(F)(F)F)c2)cn1C12CC(C1)C2 (centres undefined) | 35 mL/min/kg | 0.6 nM | 91 mL/min/kg | – | – | –
17 | Nc1ncc(-c2cn(C34CC(C3)C4)c([C@@H](O)C(F)(F)F)n2)cc1OC(F)(F)F | 14 mL/min/kg | 1.2 nM | 32 mL/min/kg | 1.1 | 26 mL/min/kg | Vd [19]: 4.6 L/kg; Cmax [20]: 2000 nM; F ([13]; mouse, po, 10 mg/kg, 24 h): 51%; AUClast [21]: 14.4 µM·h; IC50 [22]: 48 nM; half-life [23]: 3.5 h
